Test results reported in patent US8067542B1 (priority 2003, dated 2011).
Read-outs that look alike come from different tables or passages of the source.

Columns and labels:
Fusarium graminearum [1] = type: cell-based
Fusarium graminearum [2] = conditions: cited from earlier work
Verticillium dahliae [3] = conditions: plants expressing AlfAFP; cited from earlier work
Verticillium dahliae [4] = type: cell-based
[5] = High Ionic Strength Media (50 mM K+, 1 mM Ca2+)

Substance | minimun concentration of protein required to inhibit fungal growth (Fusarium graminearum [1]; [5]) | minimun concentration of protein required to inhibit fungal growth (Fusarium graminearum [1]; Standard Media) [ppm] | protection of plants infected with Fusarium head blight (Fusarium graminearum [2]) | agronomic effect on potato tuber size (Verticillium dahliae [3]) | minimum concentration of protein required to inhibit fungal growth (Verticillium dahliae [4]; [5]) [ppm] | minimum concentration of protein required to inhibit fungal growth (Verticillium dahliae [4]; Standard Media) [ppm]
Alf3: AlfAFP variant: AsnTyr inserted between C33 and R34 (RTCENLADKYRGPCFSGCDTHCTTKENAVSGRCNYRDDFRCWCTKRC; listed as Medicago sativa) | >>>20 ppm | 20 |  |  |  | 
Alf - wt: native alfalfa antifungal protein (plant defensin from Medicago sativa seeds), SEQ ID NO:2 (RTCENLADKYRGPCFSGCDTHCTTKENAVSGRCRDDFRCWCTKRC; listed as Medicago sativa) | 15-20 ppm | 10 | unable to provide an adequate level of protection | reduction in potato tuber size | 15 | 5
